Test results taken from ChEMBL document CHEMBL1201862, “PubChem BioAssay data set” (2004).
The source made the active and inactive calls.

Legend:
Kallikrein-7 = Kallikrein-7 (Homo sapiens, UniProt P49862); test: Fluorescence Intensity-based biochemical primary high throughput dose response assay to identify activators of kallikrein-7 (K7) zymogen.
[1] = molecular target: T1, Replicative DNA helicase DnaB (Mycobacterium tuberculosis, UniProt P9WMR3); test: DnaB intein splicing inhibitors, dose response, biochemical, cell-free fluorescence (AID 449749); assay type: functional
T1 sequence (P9WMR3 whole entry): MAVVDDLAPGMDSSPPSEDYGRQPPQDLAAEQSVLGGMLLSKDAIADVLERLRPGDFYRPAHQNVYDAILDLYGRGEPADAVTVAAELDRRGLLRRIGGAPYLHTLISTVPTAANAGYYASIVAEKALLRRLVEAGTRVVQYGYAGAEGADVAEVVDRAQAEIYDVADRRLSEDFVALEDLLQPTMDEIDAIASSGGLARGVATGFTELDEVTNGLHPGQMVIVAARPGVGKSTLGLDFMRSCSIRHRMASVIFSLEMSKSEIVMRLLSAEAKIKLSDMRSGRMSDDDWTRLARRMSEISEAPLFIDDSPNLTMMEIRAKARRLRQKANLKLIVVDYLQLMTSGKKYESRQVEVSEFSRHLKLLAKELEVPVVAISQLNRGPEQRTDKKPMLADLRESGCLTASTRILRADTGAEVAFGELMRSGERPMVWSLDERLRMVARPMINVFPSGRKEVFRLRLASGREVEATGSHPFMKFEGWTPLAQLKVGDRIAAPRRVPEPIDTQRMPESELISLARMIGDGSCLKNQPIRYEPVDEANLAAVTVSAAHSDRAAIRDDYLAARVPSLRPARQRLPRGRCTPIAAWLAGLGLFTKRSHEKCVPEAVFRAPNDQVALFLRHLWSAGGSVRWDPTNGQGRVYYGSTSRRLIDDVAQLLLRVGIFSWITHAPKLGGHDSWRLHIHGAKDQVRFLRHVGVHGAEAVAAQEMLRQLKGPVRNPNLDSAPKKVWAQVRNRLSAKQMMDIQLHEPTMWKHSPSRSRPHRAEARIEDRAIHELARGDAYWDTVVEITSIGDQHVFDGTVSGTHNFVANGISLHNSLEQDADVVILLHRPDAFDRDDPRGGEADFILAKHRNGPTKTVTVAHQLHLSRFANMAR

[2] = cytotoxicity toward NIH3T3 fibroblasts, dose response, counter-screen, cell-based, ATP luminescence, mouse fibroblasts (AID 2010); assay type: functional;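 note: cells exposed to compound for about 90 hours before reading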
X-box-binding protein 1 = molecular target: T2, X-box-binding protein 1 (Homo sapiens, UniProt P17861); assay type: functional, Cricetulus griseus;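 note: confirmatory dose-response counter-screen serving a CHOP assay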
T2 sequence (P17861 whole entry): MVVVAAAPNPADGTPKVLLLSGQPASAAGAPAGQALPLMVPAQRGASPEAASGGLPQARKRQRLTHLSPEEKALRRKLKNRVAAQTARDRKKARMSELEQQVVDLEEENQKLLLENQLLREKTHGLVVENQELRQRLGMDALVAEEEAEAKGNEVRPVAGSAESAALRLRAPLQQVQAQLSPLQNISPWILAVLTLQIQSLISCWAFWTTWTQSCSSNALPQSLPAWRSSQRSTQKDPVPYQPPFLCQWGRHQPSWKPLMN

Large T antigen = Large T antigen (Simian virus 40, UniProt P03070); assay type: functional, Betapolyomavirus macacae;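 note: Confirmatory-stage PubChem screen for compounds that inhibit SV40 T antigen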
Sequence of Large T antigen (P03070 whole entry): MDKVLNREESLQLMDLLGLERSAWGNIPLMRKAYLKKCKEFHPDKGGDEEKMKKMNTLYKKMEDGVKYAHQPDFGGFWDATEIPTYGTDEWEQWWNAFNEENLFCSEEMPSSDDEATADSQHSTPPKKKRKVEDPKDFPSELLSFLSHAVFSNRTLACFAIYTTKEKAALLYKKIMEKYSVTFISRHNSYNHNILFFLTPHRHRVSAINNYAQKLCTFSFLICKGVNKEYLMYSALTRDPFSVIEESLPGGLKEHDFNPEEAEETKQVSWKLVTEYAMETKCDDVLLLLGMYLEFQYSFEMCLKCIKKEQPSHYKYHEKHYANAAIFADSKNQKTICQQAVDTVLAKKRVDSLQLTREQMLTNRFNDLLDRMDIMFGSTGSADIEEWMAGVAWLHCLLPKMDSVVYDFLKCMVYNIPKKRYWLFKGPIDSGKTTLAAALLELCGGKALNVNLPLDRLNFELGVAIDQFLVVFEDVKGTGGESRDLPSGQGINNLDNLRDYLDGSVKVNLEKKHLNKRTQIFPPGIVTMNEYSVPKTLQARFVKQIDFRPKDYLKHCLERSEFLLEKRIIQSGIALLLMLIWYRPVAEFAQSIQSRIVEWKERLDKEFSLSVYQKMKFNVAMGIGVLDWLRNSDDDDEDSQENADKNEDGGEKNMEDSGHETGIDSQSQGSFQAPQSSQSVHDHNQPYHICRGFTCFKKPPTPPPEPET

[3] = molecular target: T3, Heat shock factor protein 1 (Mus musculus, UniProt P38532); test: HSF1 potentiators in luciferase reporter cells, confirmation, cell-based, NIH3T3, luminescence, dose retest (AID 435004); assay type: functional;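 note: stress induced by proteasome inhibitor MG132 added 30 min after compound; luciferase reporter driven by HSF1 response element in NIH3T3 cells; actives raise luminescence as potentiators of the MG132 stress response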
T3 sequence (P38532 whole entry): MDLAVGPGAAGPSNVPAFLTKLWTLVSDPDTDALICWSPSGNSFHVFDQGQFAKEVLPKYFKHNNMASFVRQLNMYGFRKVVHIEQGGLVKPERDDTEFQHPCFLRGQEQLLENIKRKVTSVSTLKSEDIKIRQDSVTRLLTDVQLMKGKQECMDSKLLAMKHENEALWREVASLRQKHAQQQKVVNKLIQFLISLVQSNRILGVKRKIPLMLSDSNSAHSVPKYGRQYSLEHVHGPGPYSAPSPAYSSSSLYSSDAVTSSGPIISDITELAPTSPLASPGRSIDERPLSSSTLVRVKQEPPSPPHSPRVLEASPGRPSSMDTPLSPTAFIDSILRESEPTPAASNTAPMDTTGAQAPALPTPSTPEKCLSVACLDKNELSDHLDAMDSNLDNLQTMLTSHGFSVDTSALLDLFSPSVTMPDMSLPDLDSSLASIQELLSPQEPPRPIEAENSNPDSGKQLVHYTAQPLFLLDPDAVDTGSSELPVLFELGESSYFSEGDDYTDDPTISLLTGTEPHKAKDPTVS

[4] = growth suppression of beta-catenin-knockout colon cells, dose response, cell-based, HCT116, human colon tumor (AID 1045); assay type: functional;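 note: HCT116 colon tumor cells with beta catenin knocked out; cells exposed to compound for 60 hours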
[5] = molecular target: Heat shock protein HSP 90-alpha (Homo sapiens, UniProt P07900); assay type: functional, organism-based
Vero = test: cells; assay type: functional; settings: Chlorocebus sabaeus
HEK293 [6] = test: cells; settings: Homo sapiens
[7] = NIH-3T3 fibroblast cytotoxicity, dose response, cytotoxicity control, cell-based, fluorescence, Alamar Blue, secondary assay (AID 2327); assay type: functional;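 note: NIH-3T3 mouse fibroblasts cultured with fluconazole at 8 µg/mL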
[8] = A549 cell cytotoxicity, dose response, cytotoxicity control, plate reader, cherry-pick, antagonist series (AID 743412); assay type: functional, cell-based
HEK293 [9] = test: cells; settings: Homo sapiens; remark: listed apart in the source
Hexokinase HKDC1 = Hexokinase HKDC1 (Homo sapiens, UniProt Q2TB90); test: HKDC1 hexokinase inhibitors, dose response, biochemical, W721R variant (AID 504729); assay type: functional
Sequence of Hexokinase HKDC1 (Q2TB90 whole entry, the tested form may be a part): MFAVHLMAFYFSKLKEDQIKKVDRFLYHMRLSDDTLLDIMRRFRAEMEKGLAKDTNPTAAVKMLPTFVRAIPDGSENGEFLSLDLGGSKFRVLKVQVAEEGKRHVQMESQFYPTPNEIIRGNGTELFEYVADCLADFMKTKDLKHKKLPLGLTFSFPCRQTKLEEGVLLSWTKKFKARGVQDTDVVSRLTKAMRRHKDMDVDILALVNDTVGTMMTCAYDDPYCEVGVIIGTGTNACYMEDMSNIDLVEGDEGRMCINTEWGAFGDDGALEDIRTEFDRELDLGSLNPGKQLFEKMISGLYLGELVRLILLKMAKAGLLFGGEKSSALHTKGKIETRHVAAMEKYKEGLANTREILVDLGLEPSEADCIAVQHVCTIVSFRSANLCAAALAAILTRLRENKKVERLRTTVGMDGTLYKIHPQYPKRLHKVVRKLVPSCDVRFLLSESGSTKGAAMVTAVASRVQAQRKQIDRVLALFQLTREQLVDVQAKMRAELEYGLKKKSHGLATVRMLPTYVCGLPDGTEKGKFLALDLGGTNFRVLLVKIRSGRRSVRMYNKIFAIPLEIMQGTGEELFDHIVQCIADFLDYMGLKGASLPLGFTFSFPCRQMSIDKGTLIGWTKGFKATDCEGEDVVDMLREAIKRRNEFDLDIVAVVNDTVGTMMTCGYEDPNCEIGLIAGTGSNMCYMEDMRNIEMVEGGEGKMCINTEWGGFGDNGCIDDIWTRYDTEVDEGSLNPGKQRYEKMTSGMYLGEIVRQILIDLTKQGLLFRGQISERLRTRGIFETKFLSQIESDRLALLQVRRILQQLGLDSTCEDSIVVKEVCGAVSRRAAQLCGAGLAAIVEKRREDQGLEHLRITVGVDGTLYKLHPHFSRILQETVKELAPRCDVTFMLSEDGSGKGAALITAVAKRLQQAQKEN

[10] = Fluorescence-based cell-based high throughput dose response assay for inhibitors of the interaction of nucleotide-binding oligomerization domain containing 2 (NOD2) and the receptor-interacting serine-threonine kinase 2 (RIPK2).; assay type: functional; settings: Homo sapiens
BJ [11] = test: cytotoxicity toward BJ-TERT-LT-ST fibroblasts, dose response, cell-based, RAS-independent, luminescence (AID 1935); assay type: functional; settings: Homo sapiens;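 note: BJ fibroblasts immortalized with TERT plus LT and ST oncogenes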
Fatty acid synthase [12] = molecular target: T4, Fatty acid synthase (Homo sapiens, UniProt P49327); test: FAS thioesterase domain inhibitors, dose response, biochemical, kinetic fluorescence intensity (AID 624326); assay type: functional;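 note: rate of fluorescence rise from hydrolysis of a fluorogenic O-methyl fluorescein ester substrate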
T4 sequence (P49327 whole entry, the tested form may be a part): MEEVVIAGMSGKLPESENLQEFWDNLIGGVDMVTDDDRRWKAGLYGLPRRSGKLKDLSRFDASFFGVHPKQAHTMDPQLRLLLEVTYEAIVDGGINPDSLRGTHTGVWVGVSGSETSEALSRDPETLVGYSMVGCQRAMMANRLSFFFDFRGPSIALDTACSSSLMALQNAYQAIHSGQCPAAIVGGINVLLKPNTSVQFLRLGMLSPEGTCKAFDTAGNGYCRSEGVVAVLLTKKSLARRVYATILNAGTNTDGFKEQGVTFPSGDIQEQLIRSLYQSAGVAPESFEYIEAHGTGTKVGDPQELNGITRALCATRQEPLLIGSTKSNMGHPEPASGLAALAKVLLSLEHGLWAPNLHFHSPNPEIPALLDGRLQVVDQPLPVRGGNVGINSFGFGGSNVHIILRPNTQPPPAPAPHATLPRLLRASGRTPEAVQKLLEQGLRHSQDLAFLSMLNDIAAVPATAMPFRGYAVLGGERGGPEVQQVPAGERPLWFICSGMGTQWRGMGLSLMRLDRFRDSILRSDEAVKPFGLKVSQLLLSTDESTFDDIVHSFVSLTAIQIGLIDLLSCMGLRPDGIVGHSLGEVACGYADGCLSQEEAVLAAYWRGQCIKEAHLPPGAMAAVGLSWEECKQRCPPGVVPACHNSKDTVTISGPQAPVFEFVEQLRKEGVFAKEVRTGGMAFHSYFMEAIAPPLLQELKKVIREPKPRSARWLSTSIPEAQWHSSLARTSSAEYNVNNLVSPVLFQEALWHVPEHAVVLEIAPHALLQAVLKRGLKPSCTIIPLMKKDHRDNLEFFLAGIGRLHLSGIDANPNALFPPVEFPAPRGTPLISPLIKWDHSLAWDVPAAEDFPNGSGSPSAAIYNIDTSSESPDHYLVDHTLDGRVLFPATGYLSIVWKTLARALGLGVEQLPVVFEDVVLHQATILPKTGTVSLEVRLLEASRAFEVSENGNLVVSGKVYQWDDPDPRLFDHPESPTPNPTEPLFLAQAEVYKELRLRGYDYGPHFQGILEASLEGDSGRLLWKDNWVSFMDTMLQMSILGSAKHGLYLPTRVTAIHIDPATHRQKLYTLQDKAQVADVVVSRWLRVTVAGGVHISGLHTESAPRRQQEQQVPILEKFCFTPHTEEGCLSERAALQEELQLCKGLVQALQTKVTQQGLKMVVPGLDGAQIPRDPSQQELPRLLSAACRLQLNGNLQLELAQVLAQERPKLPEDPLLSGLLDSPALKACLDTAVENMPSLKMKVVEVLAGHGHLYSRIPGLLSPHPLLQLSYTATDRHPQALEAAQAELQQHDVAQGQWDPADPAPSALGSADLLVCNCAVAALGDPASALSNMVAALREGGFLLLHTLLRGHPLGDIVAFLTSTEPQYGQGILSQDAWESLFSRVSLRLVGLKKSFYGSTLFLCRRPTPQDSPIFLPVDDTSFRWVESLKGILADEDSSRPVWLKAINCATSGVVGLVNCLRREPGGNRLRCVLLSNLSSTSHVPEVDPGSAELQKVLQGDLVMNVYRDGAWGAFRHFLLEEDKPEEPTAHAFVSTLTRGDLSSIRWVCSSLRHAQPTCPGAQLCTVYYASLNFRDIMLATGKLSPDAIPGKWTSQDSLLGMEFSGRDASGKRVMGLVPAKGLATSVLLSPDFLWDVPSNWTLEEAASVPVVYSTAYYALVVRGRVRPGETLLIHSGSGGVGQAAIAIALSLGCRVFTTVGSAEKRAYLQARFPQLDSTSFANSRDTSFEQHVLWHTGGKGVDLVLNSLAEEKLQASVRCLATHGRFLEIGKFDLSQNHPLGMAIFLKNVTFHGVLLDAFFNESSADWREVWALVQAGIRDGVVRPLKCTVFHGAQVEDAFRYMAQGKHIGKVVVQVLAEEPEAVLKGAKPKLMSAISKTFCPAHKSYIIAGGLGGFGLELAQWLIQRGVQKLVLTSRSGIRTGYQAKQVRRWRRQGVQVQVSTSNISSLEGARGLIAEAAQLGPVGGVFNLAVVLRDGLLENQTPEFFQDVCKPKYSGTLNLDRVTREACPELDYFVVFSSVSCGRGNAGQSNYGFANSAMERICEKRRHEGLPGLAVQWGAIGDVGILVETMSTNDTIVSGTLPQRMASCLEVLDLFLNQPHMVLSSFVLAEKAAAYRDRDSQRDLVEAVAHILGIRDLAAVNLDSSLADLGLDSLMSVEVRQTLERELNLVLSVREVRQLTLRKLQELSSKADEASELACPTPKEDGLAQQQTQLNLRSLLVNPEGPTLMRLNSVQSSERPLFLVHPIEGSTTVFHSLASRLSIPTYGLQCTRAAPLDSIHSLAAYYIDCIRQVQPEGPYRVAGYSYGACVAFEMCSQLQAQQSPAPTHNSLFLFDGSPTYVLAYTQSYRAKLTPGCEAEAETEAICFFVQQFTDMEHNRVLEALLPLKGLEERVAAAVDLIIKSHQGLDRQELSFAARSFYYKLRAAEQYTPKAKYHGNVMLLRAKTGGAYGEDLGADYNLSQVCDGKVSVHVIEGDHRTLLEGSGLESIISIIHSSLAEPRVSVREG

[13] = molecular target: DNA damage-inducible transcript 3 protein (Mus musculus, UniProt P35639); assay type: functional, Cricetulus griseus
Sequence of DNA damage-inducible transcript 3 protein (P35639 whole entry): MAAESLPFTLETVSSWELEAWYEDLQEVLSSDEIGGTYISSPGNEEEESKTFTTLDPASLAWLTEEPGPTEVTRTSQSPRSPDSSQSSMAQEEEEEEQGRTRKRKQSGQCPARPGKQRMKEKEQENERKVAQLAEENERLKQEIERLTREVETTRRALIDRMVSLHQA

[14] = inhibitors of Vif binding to APOBEC3G peptide, primary screen, biochemical, TR-FRET, GST-Vif 1-94, biotin-A3G peptide, dose response retest (AID 1117319); assay type: functional;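 note: TR-FRET signal of purified GST-Vif binding a biotinylated A3G peptide; inhibitors lower the FRET signal by blocking Vif and A3G binding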
[15] = cytotoxicity toward DRD oncogenic fibroblasts, dose response, cell-based, non-viral oncogenic, luminescence (AID 1934); assay type: functional; settings: Homo sapiens
BJ [16] = test: cells; assay type: functional, cell-based; settings: Homo sapiens
[17] = THP-1 cell cytotoxicity, dose response, cytotoxicity control for Vif-APOBEC3G degradation inhibitor project, THP-1 cells (AID 1117359); assay type: functional; settings: Human immunodeficiency virus 1, THP-1
Fatty acid synthase [18] = molecular target: T4, Fatty acid synthase; test: FAS thioesterase domain inhibitors, dose response, biochemical, endpoint fluorescence intensity, uHTS hits (AID 624327); assay type: functional;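 note: fluorescence from hydrolysis of an O-methyl fluorescein acyl ester substrate by the enzyme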
[19] = growth suppression of PTEN-null colon cells, dose response, cell-based, HCT116 PTEN knockout (AID 1047); assay type: functional;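 note: HCT116 colon tumor cells with PTEN knocked out; cells exposed to compound for 60 hours before readout; potency for loss of cell viability measured by luminescence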

Sequence of Kallikrein-7 (P49862 whole entry): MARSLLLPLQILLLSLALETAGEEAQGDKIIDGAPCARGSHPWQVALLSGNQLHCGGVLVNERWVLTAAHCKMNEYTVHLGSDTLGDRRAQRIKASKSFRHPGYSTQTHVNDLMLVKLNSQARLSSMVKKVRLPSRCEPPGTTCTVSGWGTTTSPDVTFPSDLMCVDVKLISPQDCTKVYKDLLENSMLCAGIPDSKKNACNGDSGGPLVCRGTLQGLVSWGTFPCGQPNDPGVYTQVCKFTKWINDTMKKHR

SMILES: O=c1[nH]c(N2CCOCC2)cc2ccccc12
- EC50 (Kallikrein-7): > 69.6 µM (inactive)
- AC50 [1]: > 120 µM (inactive)

SMILES: O=[N+]([O-])c1ccc(Sc2nc3ccccc3o2)c([N+](=O)[O-])c1
- EC50 [2]: 1.81 µM (active)
- Absolute IC50 (XBP1) (X-box-binding protein 1): 10 µM
- IC50 (Large T antigen): 84.9 µM (active)
- EC50 [3]: 11.7 µM (active)
- EC50 [4]: 5.57 µM (active)
- AC50 [5]: 2.22 µM (active)
- CC50 (Vero): 4.12 µM (active)
- EC50 (HEK293 [6]): > 59.6 µM (inactive)
- EC50 [7]: 5.82 µM (inconclusive)
- AC50 [8]: 6.63 µM (active)
- EC50 (HEK293 [9]): > 59.6 µM (inactive)
- IC50 (Hexokinase HKDC1): 37.4 µM (inactive)
- AC50 [1]: 2.05 µM (active)
- IC50 [10]: 1.92 µM (active)
- EC50 (BJ [11]): 5.55 µM (active)
- IC50 (Fatty acid synthase [12]): 10.1 µM (active)
- Absolute IC50 (CHOP) [13]: 10 µM
- IC50 [14]: > 100 µM (active)
- EC50 [15]: 4.54 µM (inconclusive)
- EC50 (BJ [16]): 8.14 µM (active)
- CC50 [17]: 2.46 µM (active)
- IC50 (Fatty acid synthase [18]): 15.8 µM (active)
- EC50 [19]: 6.88 µM (active)

SMILES: CCC(COC)Oc1cc(NCc2ccccc2)c2ncn(C(C)C)c2c1 (stereo unspecified)
- AC50 [8]: 26.1 µM (active)
